# Test results reported in paper PMC7567858, “Structure of inhibitor-bound mammalian complex I” (Nature Communications, 2020).
# Experiments:
# [1] = target: T1, complex I (NADH:ubiquinone oxidoreductase), bovine (Bos taurus, UniProt P03887+P17694+P42026); assay: NADH oxidation ([…]-380 nm) in complex I-AOX proteoliposomes; format: biochemical; details: Q10 in membrane phase (nmol per mg phospholipid), no piericidin, AOX recycling, 200 uM NADH, pH 7.5, 32 °C
# T1 construct: gene NDUFS2; native intact 45-subunit complex I from heart; in proteoliposomes with Q10 and AOX, or detergent-solubilised (EPR sample); with NADH-ubiquinone oxidoreductase chain 2; NADH-ubiquinone oxidoreductase chain 3; NADH-ubiquinone oxidoreductase chain 4; NADH-ubiquinone oxidoreductase chain 4L; NADH-ubiquinone oxidoreductase chain 5; NADH-ubiquinone oxidoreductase chain 6; NADH-ubiquinone oxidoreductase 75 kDa subunit, mitochondrial; NADH dehydrogenase [ubiquinone] flavoprotein 1, mitochondrial; NADH dehydrogenase [ubiquinone] flavoprotein 2, mitochondrial; NADH dehydrogenase [ubiquinone] iron-sulfur protein 3, mitochondrial; NADH dehydrogenase [ubiquinone] iron-sulfur protein 8, mitochondrial
# T1 sequence (P17694 34-463): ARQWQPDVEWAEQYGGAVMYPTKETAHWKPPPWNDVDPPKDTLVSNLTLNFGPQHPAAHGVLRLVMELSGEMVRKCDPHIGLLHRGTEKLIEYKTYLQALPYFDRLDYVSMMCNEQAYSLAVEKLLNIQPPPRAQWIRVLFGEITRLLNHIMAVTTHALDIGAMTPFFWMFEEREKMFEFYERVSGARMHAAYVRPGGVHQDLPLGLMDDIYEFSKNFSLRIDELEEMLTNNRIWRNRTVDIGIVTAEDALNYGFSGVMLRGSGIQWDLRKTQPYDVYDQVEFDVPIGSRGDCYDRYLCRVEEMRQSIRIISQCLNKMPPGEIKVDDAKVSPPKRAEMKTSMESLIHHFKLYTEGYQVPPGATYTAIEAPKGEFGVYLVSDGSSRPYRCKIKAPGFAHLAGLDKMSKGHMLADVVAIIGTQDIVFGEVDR
# T1 sequence (P42026 38-216): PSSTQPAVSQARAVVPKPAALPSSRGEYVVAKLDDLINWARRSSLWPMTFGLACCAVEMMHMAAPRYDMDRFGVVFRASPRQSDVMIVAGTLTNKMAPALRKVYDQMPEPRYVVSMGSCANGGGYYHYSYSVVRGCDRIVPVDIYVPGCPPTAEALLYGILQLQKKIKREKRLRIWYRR
# T1 sequence (P03887 whole entry): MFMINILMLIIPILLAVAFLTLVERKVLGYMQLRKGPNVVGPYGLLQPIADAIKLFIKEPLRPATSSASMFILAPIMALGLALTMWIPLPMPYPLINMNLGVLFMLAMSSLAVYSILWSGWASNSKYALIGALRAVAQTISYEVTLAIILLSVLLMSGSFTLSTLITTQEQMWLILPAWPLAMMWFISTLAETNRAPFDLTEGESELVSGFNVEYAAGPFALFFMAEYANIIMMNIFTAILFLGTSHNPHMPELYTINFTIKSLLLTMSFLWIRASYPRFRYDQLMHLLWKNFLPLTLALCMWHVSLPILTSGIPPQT
# [2] = target: T1, complex I (NADH:ubiquinone oxidoreductase), bovine; assay: global kinetic fit of NADH oxidation in proteoliposomes; format: biochemical; details: two-site competitive model; second inhibitor binds more tightly; Q10 varied, AOX recycling, 200 uM NADH, pH 7.5, 32 °C
# [3] = target: T2, mouse complex I (Mus musculus, UniProt P03888+Q91WD5+Q9DC70); assay: cryo-EM structure, […] Å; details: ubiquinone-binding site, active state, cluster N2 reduced; NDUFS2 His59 and Tyr108
# T2 construct: gene Ndufs2; native intact 45-subunit complex I purified from heart mitochondria in DDM; with NADH-ubiquinone oxidoreductase chain 2; NADH-ubiquinone oxidoreductase chain 3; NADH-ubiquinone oxidoreductase chain 4; NADH-ubiquinone oxidoreductase chain 4L; NADH-ubiquinone oxidoreductase chain 5; NADH-ubiquinone oxidoreductase chain 6; NADH-ubiquinone oxidoreductase 75 kDa subunit, mitochondrial; NADH dehydrogenase [ubiquinone] flavoprotein 1, mitochondrial; NADH dehydrogenase [ubiquinone] flavoprotein 2, mitochondrial; NADH dehydrogenase [ubiquinone] iron-sulfur protein 3, mitochondrial; NADH dehydrogenase [ubiquinone] iron-sulfur protein 8, mitochondrial
# T2 sequence (Q91WD5 34-463): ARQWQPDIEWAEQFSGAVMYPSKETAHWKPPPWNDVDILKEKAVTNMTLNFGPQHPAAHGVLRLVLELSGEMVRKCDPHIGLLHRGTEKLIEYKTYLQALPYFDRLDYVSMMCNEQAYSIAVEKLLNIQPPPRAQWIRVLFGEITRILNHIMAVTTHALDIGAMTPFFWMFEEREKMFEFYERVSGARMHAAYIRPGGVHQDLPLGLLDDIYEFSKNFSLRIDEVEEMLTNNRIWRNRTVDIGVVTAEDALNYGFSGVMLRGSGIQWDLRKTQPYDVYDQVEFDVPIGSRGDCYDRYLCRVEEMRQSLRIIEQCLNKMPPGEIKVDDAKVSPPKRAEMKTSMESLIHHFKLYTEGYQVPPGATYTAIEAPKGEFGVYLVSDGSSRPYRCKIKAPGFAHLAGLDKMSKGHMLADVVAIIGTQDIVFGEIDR
# T2 sequence (Q9DC70 36-224): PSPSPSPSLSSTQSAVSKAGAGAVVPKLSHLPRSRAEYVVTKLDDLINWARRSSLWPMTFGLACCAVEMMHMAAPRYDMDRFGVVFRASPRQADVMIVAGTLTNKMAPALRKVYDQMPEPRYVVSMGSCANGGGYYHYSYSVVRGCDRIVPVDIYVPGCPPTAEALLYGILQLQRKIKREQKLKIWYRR
# T2 sequence (P03888 whole entry): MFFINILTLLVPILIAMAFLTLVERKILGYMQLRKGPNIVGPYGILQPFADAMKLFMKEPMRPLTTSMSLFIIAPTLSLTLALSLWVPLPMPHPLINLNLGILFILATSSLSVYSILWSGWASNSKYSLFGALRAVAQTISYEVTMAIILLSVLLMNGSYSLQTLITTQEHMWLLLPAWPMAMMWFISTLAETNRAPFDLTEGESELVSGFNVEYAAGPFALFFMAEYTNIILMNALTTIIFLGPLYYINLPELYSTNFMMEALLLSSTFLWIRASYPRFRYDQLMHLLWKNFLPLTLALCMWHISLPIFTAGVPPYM
# [4] = target: T3, NDUFA10 (in mouse complex I) (Mus musculus, UniProt Q99LC3); assay: cryo-EM structure, […] Å; format: binding; details: nucleotide bound to NDUFA10, adenine stacks on Phe134
# T3 construct: supernumerary subunit within native intact complex I from mouse heart mitochondria
# T3 sequence (Q99LC3 36-355): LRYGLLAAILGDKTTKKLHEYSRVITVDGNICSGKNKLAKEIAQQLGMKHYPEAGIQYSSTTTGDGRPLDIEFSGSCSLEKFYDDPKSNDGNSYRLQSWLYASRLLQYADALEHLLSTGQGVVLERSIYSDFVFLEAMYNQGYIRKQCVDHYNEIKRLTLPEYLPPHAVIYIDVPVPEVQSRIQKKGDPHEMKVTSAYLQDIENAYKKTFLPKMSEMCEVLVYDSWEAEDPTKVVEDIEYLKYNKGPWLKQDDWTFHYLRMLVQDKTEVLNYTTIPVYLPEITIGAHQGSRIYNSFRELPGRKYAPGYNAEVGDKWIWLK
compound,measurement,setting,value
COC1=C(OC)C(=O)C(C/C=C(\C)CC/C=C(\C)CC/C=C(\C)CC/C=C(\C)CC/C=C(\C)CC/C=C(\C)CC/C=C(\C)CC/C=C(\C)CC/C=C(\C)CCC=C(C)C)=C(C)C1=O [Q10],"KM,app",[1],modelled by a series of Michaelis–Menten curves for their Q10 dependence
C/C=C(\C)[C@H](O)[C@H](C)/C=C(C)/C=C/C/C(C)=C/Cc1nc(OC)c(OC)c(O)c1C [piericidin A],KI,[2],the second inhibitor binds substantially more tightly than the first
same,"cryo-EM structure, 3.0 Å",[3],The piericidin headgroup binds adjacent to NDUFS2 His59 and Tyr108
Nc1ncnc2c1ncn2[C@@H]1O[C@H](COP(=O)(O)OP(=O)(O)OP(=O)(O)O)[C@@H](O)[C@H]1O [ATP],"cryo-EM structure, 3.0 Å",[4],replacement of the ADP bound to NDUFA10 with ATP
